{
  "source": "patent US10160791B2",
  "about": "“Protamine in treatment of neuronal injuries” (UNIVERSITY OF HELSINKI, priority 2013, dated 2018)",
  "key": {"[1]": {"system": "embryonic rat cortical neurons", "assay": "Neurite outgrowth assay on aggrecan-coated substrate, cortical neurons", "type": "cell-based", "details": "E17 rat cortical neurons, plates precoated with aggrecan 10 μg/ml, cultured 1.5-3.5 days", "description": "(§1) Cortical or hippocampal neurons from E17 rat embryos were plated at 50,000 cells/cm2 on plastic cell culture plates. Plates were precoated with aggrecan or IgG (10 μg/ml). Protamine, or derived peptides, were precoated together with aggrecan or added to culture medium when plating neurons. Cells were cultured for 1.5-3.5 days and after that images of cell cultures were taken using phase contrast microscope with ×20 objective. Neurite length was quantified using ImagePro software. Mouse neurons were immunostained with anti-tubulin βIII antibodies and imaged using fluorescent microscope."}, "wild type RPTPσ": {"system": "wild type RPTPσ", "assay": "RPTPσ binding assay (ELISA, biotinylated aggrecan), wild type RPTPσ", "parameters": "species or system mouse", "details": "FIG. 4", "excerpt": "(§2) Protamine (salmon) and protamine sulphate (herring) were from Sigma, protamine sulphate (salmon) was from Leo Pharma. Bovine aggrecan was from Sigma. The DNA sequence (the template cDNA clone MGC:63375 IMAGE:6834684) of the CSPG-binding domain of mouse RPTPσ was used for Fc-tagged RPTPσ protein production. Peptides derived from the protamine sequence were custom synthesised by CASLO ApS (Denmark).\n(§3) The Fc-tagged extracellular domain of RPTPσ was immobilized on protein G-coated plates. Binding of biotinylated aggrecan to RPTPσ was quantified via colorimetric assay using streptavidin-conjugated horse radish peroxidise. Experiments were done by using protein G coated 96 well plates (Pierce, prod. #15133). Wells were first washed briefly with PBS, 0.05% Tween-20 solution. RPTPσ wild type and mutant FC-fusion proteins were diluted into 2 μg/ml solution in buffer containing PBS, 1% BSA, 0.05% Tween-20. 150 μl of protein solution was added into the wells and plates were left for shaking at +RT for 1 hour. […] Detection of bound Streptavidin-Peroxidase Polymer was done by adding 200 μl of OPD (o-Phenylenediamine dihydrochloride, SIGMA P9187) substrate into the wells and was measured by reading the absorbance at 450 nm (A450).\n(§4) Aggrecan binding to RPTPσ was assessed via ELISA using Fc-tagged RPTPσ and biotinylated aggrecan. Binding was quantified using streptavidin-bound horse radish peroxidase. […]"}, "[2]": {"system": "Mutant RPTPσ, with a defective CSPG-binding site", "assay": "RPTPσ binding assay (ELISA, biotinylated aggrecan), mutant RPTPσ", "parameters": "species or system mouse", "details": "negative control, biotinylated aggrecan 5 μg/ml, protamine 0-5 μg/ml", "excerpt": "as §2, §3, §4"}, "[3]": {"system": "mice with spinal cord hemisection", "assay": "Vertical screen test after spinal cord hemisection", "type": "in vivo, mouse", "details": "intracerebroventricular injection, compared to vehicle", "description": "(§5) Animals were anaesthetized with a intraperitoneal mixture of Ketaminol (2 mg/20 g body weight, Intervet) and Rompun (0.25 mg/20 g body weight, Bayer). After laminectomy at C5 vertebral level, the dura was carefully removed. The right cervical spinal hemicord was transected with a 25G syringe needle from midline dorsal vessel to the lateral side. Bleeding was controlled with haemostatic gelatin sponge. Muscle and skin were sutured with 6-0 monocryl. 30 min before surgery and during following 3 days mice were treated with antibiotic Borgal (30 mg/kg, Intervet). Body weight and bladder expression were checked for 7 days, and animal received Rimadil (5 mg/kg, Pfizer) and Rapidexon (0.2 mg/kg, Evrovet) to control pain and inflammatory swelling until they stop to lose body weight.\nVertical screen (VS). The mouse was placed on a very brink of horizontal wire screen (25×22 cm, diameter of wires 2 mm spaced at 1 cm) faced to edge. Immediately after that the screen was turned vertically to place mouse to upside down position at the lower edge. The time that animal was needed to climb to the upper edge were measured during 1 min. This test was repeated every second week starting from 1st week after surgery.\n(§6) Statistic. Data obtained from Vertical screen test were analyzed by one-way ANOVA followed by post-hoc Newman-Keuls test for detection of group differences. […]"}, "[4]": {"system": "mice with spinal cord hemisection", "assay": "Cylinder test of limb use asymmetry after spinal cord hemisection", "type": "in vivo, mouse", "details": "intracerebroventricular injection, compared to vehicle", "description": "as §5\nCylinder Test of Limb Use Asymmetry. Mouse was placed to glass cylinder 10 cm in diameter and 14 cm high. Mirror was position at the angle behind of cylinder for better observation. […] The number of rearing in which mouse used right (impaired), left or both limbs for support against the wall were measured. Paw preference were calculated as ratio of total number of left limb use (left+both) to total number of right (impaired) limb use (right+both).\nas §6"}, "[5]": {"system": "embryonic rat hippocampal neurons", "assay": "Neurite outgrowth assay on aggrecan-coated substrate, hippocampal neurons", "type": "cell-based", "details": "E17 rat hippocampal neurons, plates precoated with aggrecan 10 μg/ml", "description": "as §1"}},
  "note": "Entries after “also recorded” stand apart in the source; their conditions may differ.",
  "data": [
    {"sequence": "MPRRRRSSSRPVRRRRRPRVSRRRRRRGGRRRR (Genus/Species name of salmon disclosed by SEQ ID NO 1 is not known) [Protamine, small arginine-rich nuclear protein, from Sigma]", "values": [
      {"measurement": "neuronal attachment and neurite growth on the aggrecan-coated substrate", "setting": "[1]", "value": "overcomes the inhibitory action of aggrecan, promoting neuronal attachment and neurite growth; also recorded: overcame this inhibitory action of aggrecan, promoting neuronal attachment and neurite growth; also recorded: active as both the free protein and as sulphate salt"},
      {"measurement": "amount of aggrecan binding to RPTPσ (in words)", "setting": "wild type RPTPσ", "value": "increases the amount of aggrecan binding to RPTPσ"},
      {"measurement": "aggrecan binding to mutant RPTPσ", "setting": "[2]", "value": "not affected"}
    ]},
    {"sequence": "VSRRRRRRGGRRRR [Peptide 12]", "values": [
      {"measurement": "neuronal attachment and neurite growth on the aggrecan-coated substrate", "setting": "[1]", "value": "overcome the inhibitory action of aggrecan, promoting neuronal attachment and neurite growth; also recorded: displayed activity"},
      {"measurement": "time used in the vertical climbing test (vertical screen)", "setting": "[3]", "value": "improves functional recovery"},
      {"measurement": "time used in the vertical climbing test (vertical screen)", "setting": "[3]; listed as protamine peptide 12", "value": "becomes shortened compared to injection of the vehicle only"},
      {"measurement": "limb usage on the affected side (cylinder test)", "setting": "[4]", "value": "improves functional recovery"},
      {"measurement": "limb usage on the affected side (cylinder test)", "setting": "[4]; listed as protamine peptide 12", "value": "enhances limb usage on the affected side compared to the vehicle"}
    ]},
    {"sequence": "SRPVRRRRRPRVSRRRRRRGGRRRR [Peptide 2]", "values": [
      {"measurement": "neuronal attachment and neurite growth on the aggrecan-coated substrate", "setting": "[1]", "value": "overcome the inhibitory action of aggrecan, promoting neuronal attachment and neurite growth; also recorded: displayed activity"}
    ]},
    {"sequence": "SRPVRRRRRPRVS [Peptide 3]", "values": [
      {"measurement": "neuronal attachment and neurite growth on the aggrecan-coated substrate", "setting": "[5]", "value": "overcomes the inhibitory action of aggrecan, promoting neuronal attachment and neurite growth"}
    ]}
  ]
}
